Experimental data: the supplement of paper PMC5579334
± gives the standard deviation of the averaged measurements.

Columns and labels:
HS-PSS [1] = assay: drug sensitivity score (DSS, CellTiter-Glo viability, 72 h) (DSS (dimensionless)); higher = more sensitive; extreme values may be limits of the assay
In short: (§1)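 MPNST cell lines and primary human Schwann cells (750–1000 cells per well) went into 384-well plates preprinted with each compound at five concentrations in 10-fold steps. Plates were incubated 72 h at 37 °C, 5% CO2. Viability was read as CellTiter-Glo ATP luminescence, scaled between vehicle and positive-control wells, with duplicates averaged where present. Percent inhibition is at the top concentration; drug sensitivity score and relative IC50 (censored at top concentration) come from four-parameter logistic fits.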

HS-Sch-2 [2] = assay: as above
In short: as §1

[3] = tested on: HSC1 (primary human Schwann cells); assay: as above
In short: as §1

[4] = tested on: HSC2 (primary human Schwann cells); assay: as above
In short: as §1

S1507-2 [5] = assay: as above
In short: as §1

S462 [6] = assay: as above
In short: as §1

ST8814 [7] = assay: as above
In short: as §1

STS26T [8] = assay: as above
In short: as §1

YST-1 [9] = assay: as above
In short: as §1

HS-PSS [10] = assay: drug sensitivity score (DSS, CellTox-Green cytotoxicity, 72 h) (DSS (dimensionless)); higher = more cytotoxic; extreme values may be limits of the assay
In short: (§2)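 MPNST cell lines and primary human Schwann cells were incubated 72 h at 37 °C in 384-well plates holding five 10-fold compound dilutions. CellTox-Green was added before seeding at a final 1:1000 dilution and reported fluorescence from DNA released by disrupted cells. Signals were scaled to vehicle and positive-control wells, and cultures failing plate quality control were dropped. Drug sensitivity score and relative IC50 come from four-parameter logistic fits, with IC50 censored at the top concentration.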

[11] = tested on: HSC1 (primary human Schwann cells); assay: as above
In short: as §2

[12] = tested on: HSC2 (primary human Schwann cells); assay: as above
In short: as §2

S1507-2 [13] = assay: as above
In short: as §2

ST8814 [14] = assay: as above
In short: as §2

STS26T [15] = assay: as above
In short: as §2

HS-PSS [16] = assay: % inhibition of CellTiter-Glo viability at highest tested concentration (72 h), relative to DMSO and benzethonium chloride controls; higher = more inhibition
In short: as §1

HS-Sch-2 [17] = assay: as above
In short: as §1

[18] = tested on: HSC1 (primary human Schwann cells); assay: as above
In short: as §1

[19] = tested on: HSC2 (primary human Schwann cells); assay: as above
In short: as §1

S1507-2 [20] = assay: as above
In short: as §1

S462 [21] = assay: as above
In short: as §1

ST8814 [22] = assay: as above
In short: as §1

STS26T [23] = assay: as above
In short: as §1

YST-1 [24] = assay: as above
In short: as §1

SMILES	drug sensitivity score (HS-PSS [1])	drug sensitivity score (HS-Sch-2 [2])	drug sensitivity score [3]	drug sensitivity score [4]	drug sensitivity score (S1507-2 [5])	drug sensitivity score (S462 [6])	drug sensitivity score (ST8814 [7])	drug sensitivity score (STS26T [8])	drug sensitivity score (YST-1 [9])	drug sensitivity score (HS-PSS [10])	drug sensitivity score [11]	drug sensitivity score [12]	drug sensitivity score (S1507-2 [13])	drug sensitivity score (ST8814 [14])	drug sensitivity score (STS26T [15])	% inhibition (HS-PSS [16]) [%]	% inhibition (HS-Sch-2 [17]) [%]	% inhibition [18] [%]	% inhibition [19] [%]	% inhibition (S1507-2 [20]) [%]	% inhibition (S462 [21]) [%]	% inhibition (ST8814 [22]) [%]	% inhibition (STS26T [23]) [%]	% inhibition (YST-1 [24]) [%]
CN(C)CCN1C(=O)c2cccc3cc(N)cc(c23)C1=O [Amonafide] (max concentration tested 10000 nM)	6.59	8.84	7.05	6.42	8.84 ± 0.35	8.23 ± 0.65	8.9	5.83	11.1	4.02	0	0.087	2.18 ± 0.64	3.57	0.0609	93.8	99.9	69.3	76.3	90.4 ± 2	90.9 ± 2.4	101	78.7	100
O=C1CN2Cc3c(ccc(Cl)c3Cl)N=C2N1 [Anagrelide] (max concentration tested 10000 nM)	0	8.23	1.41	11.1	0	0	0.934	0	0	0	0	0.367	0	0	0	4.14	38.7	17.3	51.1	-1.32 ± 1.6	-5.96 ± 0.63	17.3	1.1	2.83
CC(C)(C#N)c1cc(Cn2cncn2)cc(C(C)(C)C#N)c1 [Anastrozole] (max concentration tested 10000 nM)	0	0	0	0	0	0	0	0	0	0	0	0	0	0	0	-11.6	-11.4	-2.19	-11	-9.3 ± 9.7	-13.3 ± 6.7	-7.93	-1.93	6.26
CC(C)c1c(C(=O)Nc2ccccc2)c(-c2ccccc2)c(-c2ccc(F)cc2)n1CC[C@@H](O)C[C@@H](O)CC(=O)O [Atorvastatin] (max concentration tested 10000 nM)	6.74	6.02	16.6	19.7	2.53 ± 0.48	9.93 ± 0.43	3.73	5.4	6.47	0	17.1	19.6	1.46 ± 2.1	2.32	2.9	75.3	80.5	97.5	101	41.9 ± 8	96.5 ± 1.1	55.2	69.6	89.5
CC(=O)OC[C@H]1O[C@@H]([S-])[C@H](OC(C)=O)[C@@H](OC(C)=O)[C@@H]1OC(C)=O.CCP(CC)CC.[Au+] [Auranofin] (max concentration tested 2500 nM)	4.86	9.71	8.86	8.02	1.36 ± 1	8.14 ± 2	3.73	5.55	5.04	1.15	7.83	7.25	0.0037 ± 0.0052	0.171	3.5	75.4	99.9	94.8	95.2	25.1 ± 9.3	94.62 ± 0.92	66.9	79.9	91.7
CNC(=O)c1ccccc1Sc1ccc2c(/C=C/c3ccccn3)n[nH]c2c1 [Axitinib] (max concentration tested 10000 nM)	2.26	6.01	7.23	6.51	4.27 ± 3.4	6.12 ± 0.37	5.17	5.81	4.01	0	1.46	0.0899	1.12 ± 1.1	0.581	6.29	38	67.8	66.9	53.8	38.5 ± 19	52.1 ± 6.1	52.7	61.1	39.9
Nc1ncn([C@@H]2O[C@H](CO)[C@@H](O)[C@H]2O)c(=O)n1 [Azacitidine] (max concentration tested 10000 nM)	0.1	0	5.39	3.59	0	2.02 ± 0.98	0.0452	1.02	0.39	0	0	0	2.61 ± 3.7	0	0	15.6	10.9	75.2	68.2	3.07 ± 2.9	34.5 ± 9.2	12.4	29.9	22.1
